# Columns and labels:
# Test in all cases: normalised response (% of control), CellTox Green; higher = less cell death (100 = DMSO, 0 = benzethonium chloride kill control)
# Details in all cases: incubation time: 72 h
# HCC1143 = test system: HCC1143
# How it was run: (§1)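 Each entry is the normalised signal at a single concentration within a series. The series comprised 5 concentrations in 10-fold steps over a compound-specific 10,000-fold range, placed in 384-well plates into which breast cancer cell lines were seeded as 20 µl suspension and incubated 72 h. CellTox Green (485/520 nm) fluorescence and then CellTiter-Glo luminescence were read, with signals normalised per plate to 0.1 % DMSO (100) and a positive kill control (0).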
# CAL-85-1 = test system: CAL-85-1
# How it was run: as §1
# MFM-223 = test system: MFM-223
# How it was run: as §1
# MDA-MB-468 = test system: MDA-MB-468
# How it was run: as §1
# BT-474 = test system: BT-474
# How it was run: as §1
# CAL-148 = test system: CAL-148
# How it was run: as §1
# CAL-51 = test system: CAL-51
# How it was run: as §1
# HCC1599 = test system: HCC1599
# How it was run: as §1
# MCF-10A = test system: MCF-10A
# How it was run: as §1
# HCC1937 = test system: HCC1937
# How it was run: as §1
# MDA-MB-436 = test system: MDA-MB-436
# How it was run: as §1
# BT-549 = test system: BT-549
# How it was run: as §1
# MDA-MB-231 = test system: MDA-MB-231
# How it was run: as §1
# CAL-120 = test system: CAL-120
# How it was run: as §1
# DU-4475 = test system: DU-4475
# How it was run: as §1
# MDA-MB-453 = test system: MDA-MB-453
# How it was run: as §1
# Hs578T = test system: Hs578T
# How it was run: as §1
# HDQ-P1 = test system: HDQ-P1
# How it was run: as §1
Compound,normalised response (HCC1143) [%],normalised response (CAL-85-1) [%],normalised response (MFM-223) [%],normalised response (MDA-MB-468) [%],normalised response (BT-474) [%],normalised response (CAL-148) [%],normalised response (CAL-51) [%],normalised response (HCC1599) [%],normalised response (MCF-10A) [%],normalised response (HCC1937) [%],normalised response (MDA-MB-436) [%],normalised response (BT-549) [%],normalised response (MDA-MB-231) [%],normalised response (CAL-120) [%],normalised response (DU-4475) [%],normalised response (MDA-MB-453) [%],normalised response (Hs578T) [%],normalised response (HDQ-P1) [%]
Nc1ccccc1NC(=O)c1ccc(CNc2nccc(-c3cccnc3)n2)cc1 [Mocetinostat] (1000 nM),98.2,101,92.4,62.9,96,98.8,67,83.2,106,105,66.7,103,81.3,95.2,93,99.2,59.8,
COc1cc(CCc2cc(NC(=O)c3ccc(N4CC(C)NC(C)C4)cc3)n[nH]2)cc(OC)c1 (stereo not drawn) [AZD4547] (100 nM),82,108,97.4,117,96.5,101,95.6,90.6,105,113,91,118,90.1,99.3,97.8,100,94,89.4
C[C@]12O[C@H](C[C@]1(O)CO)n1c3ccccc3c3c4c(c5c6ccccc6n2c5c31)CNC4=O [Lestaurtinib] (100 nM),116,83.4,86.4,69.6,94,95.8,56.4,74.8,107,81.8,66.7,99.7,,96.2,91.5,102,96.2,105
O=C(CCBr)N1CCN(C(=O)CCBr)CC1 [Pipobroman] (10000 nM),,77.6,,134,100,96.9,101,97.4,88.8,105,101,98.9,83.1,91.5,96.9,96.5,128,104
Cc1nc(Nc2ncc(C(=O)Nc3c(C)cccc3Cl)s2)cc(N2CCN(CCO)CC2)n1 [Dasatinib] (100 nM),70.1,74,91.5,101,94.4,98.8,68.4,95.6,112,5.95,107,85.9,84.3,97.2,102,97.2,90.8,90.2
CO[C@@H](C(=O)N1Cc2[nH]nc(NC(=O)c3ccc(N4CCN(C)CC4)cc3)c2C1)c1ccccc1 [Danusertib] (10000 nM),127,67.3,94.9,55.9,91.6,90.5,22.9,106,57.6,,75.7,53.1,93.2,28.7,102,112,-40.1,48
CC[C@@]1(O)C(=O)OCc2c1cc1n(c2=O)Cc2cc3c(CN(C)C)c(O)ccc3nc2-1 [Topotecan] (100 nM),74.7,100,98,91.8,103,37.6,65,90.7,106,52.5,76.5,92.8,108,98.9,94.9,108,98.7,103
CCC/C=C/C=C/C(=O)O[C@H]1/C(=C/C(=O)OC)C[C@H]2C[C@H]([C@@H](C)O)OC(=O)C[C@H](O)C[C@@H]3C[C@H](OC(C)=O)C(C)(C)[C@](O)(C[C@@H]4C/C(=C/C(=O)OC)C[C@H](/C=C/C(C)(C)[C@]1(O)O2)O4)O3 [Bryostatin 1] (10 nM),116,91.3,88,116,106,108,92,115,109,83.2,74.1,139,117,102,106,99.9,109,
Cc1ccc(Nc2nccc(N(C)c3ccc4c(C)n(C)nc4c3)n2)cc1S(N)(=O)=O [Pazopanib] (1000 nM),99.3,101,102,50,104,106,107,105,77,101,64.8,127,99.5,101,100,95.2,110,94.3
C[C@]12C=CC(=O)C=C1CC[C@@H]1[C@@H]2[C@@H](O)C[C@@]2(C)[C@H]1CC[C@]2(O)C(=O)CO [Prednisolone] (10000 nM),51,84.1,99.7,154,101,101,102,97.9,100,56.3,60.2,90.8,150,99.8,100,94.6,66.8,57.2
CNC(=O)c1cc(Oc2ccc(NC(=O)Nc3ccc(Cl)c(C(F)(F)F)c3)cc2)ccn1 [Sorafenib] (100 nM),83.6,107,101,118,96.8,73,87,93.7,99.8,92,105,114,101,99.5,99.9,95.1,,67.2
CCC/C=C/C=C/C(=O)O[C@H]1/C(=C/C(=O)OC)C[C@H]2C[C@H]([C@@H](C)O)OC(=O)C[C@H](O)C[C@@H]3C[C@H](OC(C)=O)C(C)(C)[C@](O)(C[C@@H]4C/C(=C/C(=O)OC)C[C@H](/C=C/C(C)(C)[C@]1(O)O2)O4)O3 [Bryostatin 1] (100 nM),53.9,64.6,104,150,93.1,105,104,118,103,,,122,120,99.8,112,104,114,73.7
Nc1ccccc1NC(=O)c1ccc(CNc2nccc(-c3cccnc3)n2)cc1 [Mocetinostat] (10000 nM),63.6,-38.3,60.3,-170,34.8,35.8,7.12,73.8,84,69.9,-9.9,34.1,-24.5,17.4,72.3,92.3,48.6,-1.8
Nc1cccc2c1CN(C1CCC(=O)NC1=O)C2=O (stereo not drawn) [Lenalidomide] (1000 nM),111,92.2,99.6,122,99.8,,104,105,108,113,88.4,125,109,96.9,103,103,94.5,104
Cc1nc(Nc2ncc(C(=O)Nc3c(C)cccc3Cl)s2)cc(N2CCN(CCO)CC2)n1 [Dasatinib] (1000 nM),107,43.1,,99.7,103,104,75.6,102,63,91.4,97,39.7,35,100,96.6,92.5,5.15,81.3
COc1cc(CCc2cc(NC(=O)c3ccc(N4CC(C)NC(C)C4)cc3)n[nH]2)cc(OC)c1 (stereo not drawn) [AZD4547] (1000 nM),59.4,126,95.5,190,99.9,57.8,96.6,100,63.9,88.6,95.4,90,110,89.5,98.5,103,115,
CC[C@@]1(O)C(=O)OCc2c1cc1n(c2=O)Cc2cc3c(CN(C)C)c(O)ccc3nc2-1 [Topotecan] (1000 nM),76.7,67.8,90.7,-478,96.6,12,18.9,81.3,92.2,95.1,71,90.6,,85,83.2,108,,
COc1nc(N)nc2c1ncn2[C@@H]1O[C@H](CO)[C@@H](O)[C@@H]1O [Nelarabine] (1000 nM),,108,89.8,102,96.4,87.2,99.3,90.3,98.8,100,88.7,128,106,89,94.7,104,107,78.7
O=C(CCBr)N1CCN(C(=O)CCBr)CC1 [Pipobroman] (1000 nM),,106,94,84.6,100,,106,93.6,103,93.2,102,98.2,96.7,98.9,101,90.5,91.2,100
CO[C@@H](C(=O)N1Cc2[nH]nc(NC(=O)c3ccc(N4CCN(C)CC4)cc3)c2C1)c1ccccc1 [Danusertib] (1000 nM),66.9,97.5,92.9,51.4,102,45.1,57.8,104,110,129,,112,101,94,97.3,84.9,,105
Nc1cccc2c1CN(C1CCC(=O)NC1=O)C2=O (stereo not drawn) [Lenalidomide] (10000 nM),119,90.7,80.3,138,102,,102,103,91.8,97.7,95.5,117,108,97.7,100,99.8,127,98.5
C[C@]12C=CC(=O)C=C1CC[C@@H]1[C@@H]2[C@@H](O)C[C@@]2(C)[C@H]1CC[C@]2(O)C(=O)CO [Prednisolone] (1000 nM),112,98.9,95.8,156,99.6,104,113,100,101,122,54.9,116,142,98.7,102,,104,

# Source: the supplement of paper PMC4862054
